# Assay results taken from the supplement of paper PMC10307832.
# Key:
# Test in all cases: relative viability (nuclei count vs DMSO), 5 days (fraction); higher = more cells survive
# HCC-827 = tested on: HCC-827
# Outline: (§1)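 Each reported value is a median over duplicate plates. It expresses relative viability: treated-well nuclei count divided by vehicle-well nuclei count. Lung cancer cell lines in 1536-well plates were dosed by pin tool a day after seeding, alone with one drug or with a fixed anchor-drug dose plus five library-drug doses (not always all listed) in √10 steps, and nuclei were counted after 5 days.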
# SW 1573 = tested on: SW 1573
# Outline: as §1
# NCI-H1437 = tested on: NCI-H1437
# Outline: as §1
# SK-MES-1 = tested on: SK-MES-1
# Outline: as §1
# NCI-H358 = tested on: NCI-H358
# Outline: as §1
# LU99A = tested on: LU99A
# Outline: as §1
# LXF-289 = tested on: LXF-289
# Outline: as §1
# NCI-H1915 = tested on: NCI-H1915
# Outline: as §1
# NCI-H23 = tested on: NCI-H23
# Outline: as §1
# NCI-H441 = tested on: NCI-H441
# Outline: as §1
# NCI-H2228 = tested on: NCI-H2228
# Outline: as §1
# NCI-H522 = tested on: NCI-H522
# Outline: as §1
# NCI-H2342 = tested on: NCI-H2342
# Outline: as §1
# NCI-H322M = tested on: NCI-H322M
# Outline: as §1
# NCI-H647 = tested on: NCI-H647
# Outline: as §1
# NCI-H1666 = tested on: NCI-H1666
# Outline: as §1
# NCI-H2170 = tested on: NCI-H2170
# Outline: as §1
# BEN = tested on: BEN
# Outline: as §1
# EPLC-272H = tested on: EPLC-272H
# Outline: as §1
# NCI-H650 = tested on: NCI-H650
# Outline: as §1
# HOP-62 = tested on: HOP-62
# Outline: as §1
# NCI-H2347 = tested on: NCI-H2347
# Outline: as §1
smiles,measurement,setting,value
C=C1C(=O)O[C@@H](CCCCCCCC)[C@@H]1C(=O)O [C-75] + Nc1nc2[nH]cc(CCc3ccc(C(=O)N[C@@H](CCC(=O)O)C(=O)O)cc3)c2c(=O)[nH]1 [Pemetrexed] (partner 0.2 µM),relative viability,HCC-827; first compound 0.253 µM,0.271
same,relative viability,HCC-827; first compound 0.8 µM,0.279
same,relative viability,HCC-827; first compound 8 µM,0.287
same,relative viability,SW 1573; first compound 0.08 µM,0.947
same,relative viability,SW 1573; first compound 0.253 µM,0.874
same,relative viability,SW 1573; first compound 0.8 µM,0.728
same,relative viability,SW 1573; first compound 2.53 µM,0.684
same,relative viability,SW 1573; first compound 8 µM,0.706
same,relative viability,NCI-H1437; first compound 0.08 µM,0.314
same,relative viability,NCI-H1437; first compound 0.253 µM,0.324
same,relative viability,NCI-H1437; first compound 0.8 µM,0.321
same,relative viability,NCI-H1437; first compound 8 µM,0.269
same,relative viability,SK-MES-1; first compound 0.08 µM,0.97
same,relative viability,SK-MES-1; first compound 0.253 µM,0.911
same,relative viability,SK-MES-1; first compound 0.8 µM,0.839
same,relative viability,SK-MES-1; first compound 2.53 µM,0.766
same,relative viability,SK-MES-1; first compound 8 µM,0.919
same,relative viability,NCI-H358; first compound 0.08 µM,0.169
same,relative viability,NCI-H358; first compound 0.253 µM,0.185
same,relative viability,NCI-H358; first compound 0.8 µM,0.168
same,relative viability,NCI-H358; first compound 8 µM,0.189
same,relative viability,LU99A; first compound 0.08 µM,0.191
same,relative viability,LU99A; first compound 0.253 µM,0.212
same,relative viability,LU99A; first compound 0.8 µM,0.195
same,relative viability,LU99A; first compound 2.53 µM,0.19
same,relative viability,LU99A; first compound 8 µM,0.21
same,relative viability,LXF-289; first compound 0.08 µM,0.834
same,relative viability,LXF-289; first compound 0.253 µM,0.906
same,relative viability,LXF-289; first compound 0.8 µM,0.858
same,relative viability,LXF-289; first compound 2.53 µM,0.886
same,relative viability,LXF-289; first compound 8 µM,0.904
same,relative viability,NCI-H1915; first compound 0.08 µM,0.471
same,relative viability,NCI-H1915; first compound 0.253 µM,0.475
same,relative viability,NCI-H1915; first compound 0.8 µM,0.483
same,relative viability,NCI-H1915; first compound 2.53 µM,0.448
same,relative viability,NCI-H1915; first compound 8 µM,0.527
same,relative viability,NCI-H23; first compound 0.08 µM,0.716
same,relative viability,NCI-H23; first compound 0.253 µM,1.03
same,relative viability,NCI-H23; first compound 0.8 µM,0.546
same,relative viability,NCI-H23; first compound 2.53 µM,0.406
same,relative viability,NCI-H23; first compound 8 µM,0.443
same,relative viability,NCI-H441; first compound 0.08 µM,0.295
same,relative viability,NCI-H441; first compound 0.253 µM,0.278
same,relative viability,NCI-H441; first compound 0.8 µM,0.283
same,relative viability,NCI-H441; first compound 8 µM,0.263
same,relative viability,NCI-H2228; first compound 0.08 µM,0.33
same,relative viability,NCI-H2228; first compound 0.253 µM,0.332
same,relative viability,NCI-H2228; first compound 0.8 µM,0.29
same,relative viability,NCI-H2228; first compound 2.53 µM,0.333
same,relative viability,NCI-H2228; first compound 8 µM,0.318
same,relative viability,NCI-H522; first compound 0.08 µM,1.02
same,relative viability,NCI-H522; first compound 0.253 µM,0.76
same,relative viability,NCI-H522; first compound 0.8 µM,0.828
same,relative viability,NCI-H522; first compound 2.53 µM,0.869
same,relative viability,NCI-H522; first compound 8 µM,0.879
same,relative viability,NCI-H2342; first compound 0.08 µM,0.815
same,relative viability,NCI-H2342; first compound 0.253 µM,0.771
same,relative viability,NCI-H2342; first compound 0.8 µM,0.693
same,relative viability,NCI-H2342; first compound 2.53 µM,0.62
same,relative viability,NCI-H2342; first compound 8 µM,0.766
same,relative viability,NCI-H322M; first compound 0.08 µM,0.633
same,relative viability,NCI-H322M; first compound 0.253 µM,0.6
same,relative viability,NCI-H322M; first compound 0.8 µM,0.575
same,relative viability,NCI-H322M; first compound 8 µM,0.625
same,relative viability,NCI-H647; first compound 0.08 µM,0.181
same,relative viability,NCI-H647; first compound 0.253 µM,0.186
same,relative viability,NCI-H647; first compound 0.8 µM,0.167
same,relative viability,NCI-H647; first compound 2.53 µM,0.171
same,relative viability,NCI-H647; first compound 8 µM,0.128
same,relative viability,NCI-H1666; first compound 0.08 µM,0.882
same,relative viability,NCI-H1666; first compound 0.253 µM,0.828
same,relative viability,NCI-H1666; first compound 0.8 µM,0.815
same,relative viability,NCI-H1666; first compound 8 µM,0.796
same,relative viability,NCI-H2170; first compound 0.08 µM,0.244
same,relative viability,NCI-H2170; first compound 0.253 µM,0.271
same,relative viability,NCI-H2170; first compound 0.8 µM,0.286
same,relative viability,NCI-H2170; first compound 2.53 µM,0.266
same,relative viability,NCI-H2170; first compound 8 µM,0.282
same,relative viability,BEN; first compound 0.08 µM,0.753
same,relative viability,BEN; first compound 0.253 µM,0.816
same,relative viability,BEN; first compound 0.8 µM,0.688
same,relative viability,BEN; first compound 2.53 µM,0.842
same,relative viability,BEN; first compound 8 µM,0.766
same,relative viability,EPLC-272H; first compound 0.08 µM,0.313
same,relative viability,EPLC-272H; first compound 0.253 µM,0.267
same,relative viability,EPLC-272H; first compound 0.8 µM,0.329
same,relative viability,EPLC-272H; first compound 2.53 µM,0.202
same,relative viability,EPLC-272H; first compound 8 µM,0.24
same,relative viability,NCI-H650; first compound 0.08 µM,1.28
same,relative viability,NCI-H650; first compound 0.253 µM,0.888
same,relative viability,NCI-H650; first compound 0.8 µM,0.857
same,relative viability,NCI-H650; first compound 2.53 µM,0.823
same,relative viability,NCI-H650; first compound 8 µM,0.882
same,relative viability,HOP-62; first compound 0.08 µM,0.365
same,relative viability,HOP-62; first compound 0.253 µM,0.306
same,relative viability,HOP-62; first compound 0.8 µM,0.291
same,relative viability,HOP-62; first compound 2.53 µM,0.268
same,relative viability,HOP-62; first compound 8 µM,0.311
same,relative viability,NCI-H2347; first compound 0.08 µM,0.402
same,relative viability,NCI-H2347; first compound 0.253 µM,0.388
same,relative viability,NCI-H2347; first compound 0.8 µM,0.442
same,relative viability,NCI-H2347; first compound 2.53 µM,0.447
same,relative viability,NCI-H2347; first compound 8 µM,0.48
